Measured values published in ChEMBL document CHEMBL1201862, “PubChem BioAssay data set” (2004).
Calls of active or inactive are those of the source.

Columns and labels:
[1] = target: T1, Sentrin-specific protease 7 (Homo sapiens, UniProt Q9BQF6); type: functional;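 also: Luminescence-based dose-response confirmation of ultra-high-throughput screening hits, measuring inhibition of SENP7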
T1 sequence (Q9BQF6 whole entry): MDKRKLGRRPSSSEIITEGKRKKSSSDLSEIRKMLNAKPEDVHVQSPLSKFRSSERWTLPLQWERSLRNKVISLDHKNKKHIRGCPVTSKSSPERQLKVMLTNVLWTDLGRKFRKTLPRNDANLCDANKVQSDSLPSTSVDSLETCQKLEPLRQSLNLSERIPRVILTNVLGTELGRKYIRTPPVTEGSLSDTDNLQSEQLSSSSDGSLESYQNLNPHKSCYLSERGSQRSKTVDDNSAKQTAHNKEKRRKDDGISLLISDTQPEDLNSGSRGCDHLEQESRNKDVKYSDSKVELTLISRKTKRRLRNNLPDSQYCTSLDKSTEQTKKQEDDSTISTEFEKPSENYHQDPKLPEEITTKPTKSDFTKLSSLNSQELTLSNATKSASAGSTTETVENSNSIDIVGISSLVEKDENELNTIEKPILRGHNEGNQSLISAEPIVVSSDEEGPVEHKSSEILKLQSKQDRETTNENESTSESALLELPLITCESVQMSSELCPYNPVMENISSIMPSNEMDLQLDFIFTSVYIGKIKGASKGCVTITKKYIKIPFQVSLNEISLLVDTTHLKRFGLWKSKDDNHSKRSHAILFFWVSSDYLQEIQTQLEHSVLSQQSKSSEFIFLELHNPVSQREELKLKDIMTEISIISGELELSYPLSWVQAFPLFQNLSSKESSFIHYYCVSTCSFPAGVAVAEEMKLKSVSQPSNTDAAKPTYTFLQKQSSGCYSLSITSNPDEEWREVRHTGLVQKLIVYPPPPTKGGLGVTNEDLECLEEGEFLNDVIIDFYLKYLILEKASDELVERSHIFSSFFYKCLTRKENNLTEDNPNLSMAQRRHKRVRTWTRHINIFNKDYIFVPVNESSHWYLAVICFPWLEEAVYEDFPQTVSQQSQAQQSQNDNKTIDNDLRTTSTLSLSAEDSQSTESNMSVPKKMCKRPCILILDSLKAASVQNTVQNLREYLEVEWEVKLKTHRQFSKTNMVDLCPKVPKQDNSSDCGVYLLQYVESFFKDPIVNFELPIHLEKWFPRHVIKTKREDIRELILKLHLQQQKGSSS

[2] = target: T2, Replicative DNA helicase DnaB (Mycobacterium tuberculosis, UniProt P9WMR3); test: DnaB intein splicing inhibitors, dose response, biochemical, cell-free fluorescence (AID 449749); type: functional
T2 sequence (P9WMR3 whole entry): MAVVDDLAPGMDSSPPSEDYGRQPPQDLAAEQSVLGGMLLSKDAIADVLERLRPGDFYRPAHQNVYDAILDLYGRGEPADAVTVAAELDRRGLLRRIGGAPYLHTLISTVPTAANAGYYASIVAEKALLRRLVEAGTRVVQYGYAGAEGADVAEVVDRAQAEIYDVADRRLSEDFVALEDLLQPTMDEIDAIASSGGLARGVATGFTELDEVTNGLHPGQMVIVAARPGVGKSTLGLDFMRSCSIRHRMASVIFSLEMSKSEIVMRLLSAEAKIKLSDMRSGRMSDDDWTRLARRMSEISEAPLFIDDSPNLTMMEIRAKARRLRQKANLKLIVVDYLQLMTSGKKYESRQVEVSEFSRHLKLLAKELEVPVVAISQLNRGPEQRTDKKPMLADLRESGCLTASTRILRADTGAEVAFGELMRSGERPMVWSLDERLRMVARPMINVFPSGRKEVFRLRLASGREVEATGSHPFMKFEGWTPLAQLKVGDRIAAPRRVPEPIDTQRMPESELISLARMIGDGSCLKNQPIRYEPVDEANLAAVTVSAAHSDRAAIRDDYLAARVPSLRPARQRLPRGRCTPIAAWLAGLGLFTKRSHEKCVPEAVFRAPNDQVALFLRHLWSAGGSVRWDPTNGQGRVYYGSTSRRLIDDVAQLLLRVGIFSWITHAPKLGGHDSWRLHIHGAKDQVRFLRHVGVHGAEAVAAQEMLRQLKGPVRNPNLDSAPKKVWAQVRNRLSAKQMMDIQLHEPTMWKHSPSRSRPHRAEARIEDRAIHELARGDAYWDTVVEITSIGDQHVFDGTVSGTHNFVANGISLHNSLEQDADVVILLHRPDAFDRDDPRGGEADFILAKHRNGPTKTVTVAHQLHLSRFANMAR

Protein RecA = target: T3, Protein RecA (Mycobacterium tuberculosis, UniProt P9WHJ3); test: Fluorescence Cell-Free Homogeneous Dose Retest to Identify Inhibitors of RecA-Intein Splicing Activity. [Related pubchem assays (depositor defined):AID2097, AID2223, AID489010, AID492950]; type: functional
T3 sequence (P9WHJ3 whole entry): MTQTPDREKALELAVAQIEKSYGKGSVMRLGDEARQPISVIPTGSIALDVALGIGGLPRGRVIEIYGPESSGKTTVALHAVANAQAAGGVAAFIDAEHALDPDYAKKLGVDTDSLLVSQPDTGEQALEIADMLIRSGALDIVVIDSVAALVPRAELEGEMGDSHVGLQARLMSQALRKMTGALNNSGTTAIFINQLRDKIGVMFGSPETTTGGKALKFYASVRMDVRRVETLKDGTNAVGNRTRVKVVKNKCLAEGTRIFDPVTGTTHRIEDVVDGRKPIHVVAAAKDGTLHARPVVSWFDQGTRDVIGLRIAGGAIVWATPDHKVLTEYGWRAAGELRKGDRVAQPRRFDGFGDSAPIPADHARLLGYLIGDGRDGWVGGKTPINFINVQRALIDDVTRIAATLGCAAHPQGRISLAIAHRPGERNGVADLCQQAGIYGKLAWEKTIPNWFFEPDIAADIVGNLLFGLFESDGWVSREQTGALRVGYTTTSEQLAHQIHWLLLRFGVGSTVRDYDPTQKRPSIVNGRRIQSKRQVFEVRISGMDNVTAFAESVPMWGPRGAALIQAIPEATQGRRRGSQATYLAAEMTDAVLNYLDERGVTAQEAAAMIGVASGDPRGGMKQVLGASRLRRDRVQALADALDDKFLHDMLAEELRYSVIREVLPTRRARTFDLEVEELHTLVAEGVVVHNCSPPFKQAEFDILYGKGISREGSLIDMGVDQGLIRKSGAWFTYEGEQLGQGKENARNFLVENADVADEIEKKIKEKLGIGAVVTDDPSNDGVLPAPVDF

Streptococcus = test: Group A Streptococcus viability loss, dose response, counter-screen for streptokinase expression inhibitor project, luminescence, BacTiterGlo (AID 1915); type: functional, organism-based;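 also: potency for reduction of bacterial viability or growth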

Compound	IC50 [1]	AC50 [2]	EC50 (Protein RecA)	EC50 (Streptococcus)
CC1OC(Nc2cccc3ccccc23)C(O)C(O)C1O (stereo not given)	7.53 µM (active)	> 380 µM (inactive)	75.1 µM (active)	
O=C(Nc1ccccc1)c1nnsc1[S+]([O-])c1ccc(Cl)cc1 (stereo not given)		0.964 µM (active)	5.92 µM (active)	3.79 µM (active)
O=C1C=C(Nc2ccccc2)c2ccccc2C1=O	12.2 µM (active)	0.664 µM (active)	0.723 µM (active)	8.86 µM (active)
